Assay results: US8426447B2, “Spiro-tricyclic ring compounds as beta-secretase modulators and methods of use” (Amgen Inc., priority 2008, dated 2013)

How the values were obtained:
BACE1 [1] = molecular target: T1, BACE1 (Homo sapiens, UniProt P56817); assay: In Vitro Enzymatic BACE FRET (Fluorescence Resonance Energy Transfer) Assay; type: biochemical; conditions: read-out: BACE1 FRET assay
How it was run: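 One-hour incubation initiated by 50 nM quenched FRET peptide spanning the BACE cleavage site, in 0.05 M acetate (pH 4.2), 100 uM genapol, 10% DMSO final. Tris addition neutralizes pH to end the reaction before fluorescence measurement.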

BACE1 [2] = molecular target: T1, BACE1; assay: In Vitro BACE Cell-based Assay (HEK cell assay): Aβ40 in conditioned medium of cells stably expressing Amyloid Precursor Protein, sandwich ELISA; conditions: read-out: HEK cell assay
How it was run: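 First, APP-stable cells grow 24 h at 37° C., 5% CO2. Next, test compounds are added for 24 h (10 doses, 0.1% DMSO). Finally, medium Aβ40 is determined by pAb40/6E10 sandwich ELISA with Europium TRF, and IC50 is calculated.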

[3] = in vitro BACE FRET enzyme assay, IC50 class symbols
[4] = HEK cell-based assay, Aβ40 in conditioned medium, IC50 class symbols

T1 sequence (P56817 46-501, species assumed): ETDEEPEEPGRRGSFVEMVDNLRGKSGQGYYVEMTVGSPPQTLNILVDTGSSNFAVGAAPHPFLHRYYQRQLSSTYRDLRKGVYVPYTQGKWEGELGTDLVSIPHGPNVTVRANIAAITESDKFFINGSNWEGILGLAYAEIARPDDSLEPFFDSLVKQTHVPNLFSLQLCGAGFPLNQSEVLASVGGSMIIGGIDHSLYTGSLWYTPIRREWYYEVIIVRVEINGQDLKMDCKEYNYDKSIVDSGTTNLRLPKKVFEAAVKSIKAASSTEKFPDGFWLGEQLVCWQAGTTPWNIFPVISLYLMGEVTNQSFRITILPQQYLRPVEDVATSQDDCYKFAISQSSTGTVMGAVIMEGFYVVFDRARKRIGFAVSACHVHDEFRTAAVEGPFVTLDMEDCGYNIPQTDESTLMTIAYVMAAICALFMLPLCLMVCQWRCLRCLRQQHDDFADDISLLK

IC50 (BACE1 [1]; Table III, IC50's in uM ranges) [µM]	IC50 (BACE1 [2]; Table III, IC50's in uM ranges) [µM]	IC50 (BACE1 [1]; [3]) [µM]	IC50 (BACE1 [2]; [4]) [µM]	Compound
0.1 to 1	1 to 5			CC1(COc2ccc3c(c2)[C@]2(COC(N)=N2)c2cc(Br)cnc2O3)COC1 [compound 164]
< 0.1	< 0.1			CC1(COc2ccc3c(c2)[C@]2(COC(N)=N2)c2cc(-c4cccnc4)cnc2O3)COC1 [compound 165]
< 0.1	0.1 to 1			CC1(COc2ccc3c(c2)[C@]2(COC(N)=N2)c2cc(-c4cncnc4)cnc2O3)COC1 [compound 166]
< 0.1	0.1 to 1			CC(C)(C#N)COc1ccc2c(c1)[C@]1(COC(N)=N1)c1cc(-c3cncnc3)cnc1O2 [compound 167]
< 0.1	< 0.1			CC(C)(C#N)COc1ccc2c(c1)[C@]1(COC(N)=N1)c1cc(-c3cccnc3)cnc1O2 [compound 168]
1 to 5	> 5			COC(=O)/C=C/c1ccc2c(c1)[C@@]1(COC(N)=N1)c1cc(Br)ccc1O2 [compound 169]
< 0.1	< 0.1			CCOC(C)(C)COc1ccc2c(c1)[C@]1(COC(N)=N1)c1cc(-c3cncnc3)ccc1O2 [compound 170]
0.1 to 1	1 to 5			CC(C)(F)COc1ccc2c(c1)[C@]1(COC=N1)c1cc(Br)c(N)nc1O2 [compound 171]
< 0.1	< 0.1			CCOC(C)(C)COc1ccc2c(c1)[C@]1(COC(N)=N1)c1cc(-c3cccnc3)ccc1O2 [compound 172]
1 to 5	> 5			CC(C)(O)C#Cc1ccc2c(c1)[C@@]1(COC(N)=N1)c1cc(Br)cnc1O2 [compound 173]
< 0.1	0.1 to 1			NC1=N[C@]2(CO1)c1cc(-c3cccnc3)ccc1Oc1ncc(Br)cc12 [compound 174]
< 0.1	< 0.1			NC1=N[C@]2(CO1)c1cc(OCC3CCOCC3)ccc1Oc1ccc(-c3cncnc3)cc12 [compound 175]
< 0.1	0.1 to 1			CC(C)(F)COc1ccc2c(c1)[C@]1(COC(N)=N1)c1cc(-c3cncnc3)cnc1O2 [compound 176]
< 0.1	< 0.1			CC(C)(F)COc1ccc2c(c1)[C@]1(COC(N)=N1)c1cc(-c3cccnc3)cnc1O2 [compound 177]
< 0.1	0.1 to 1			CC(C)(C#N)COc1ccc2c(c1)[C@]1(COC(N)=N1)c1cc(C#CC3CC3)ccc1O2 [compound 178]
< 0.1	0.1 to 1			COC(C)(C)C#Cc1ccc2c(c1)[C@@]1(COC(N)=N1)c1cc(-c3cccnc3)cnc1O2 [compound 179]
< 0.1	0.1 to 1			CC(C)OCCOc1ccc2c(c1)[C@]1(COC(N)=N1)c1cc(-c3cncnc3)ccc1O2 [compound 180]
< 0.1	0.1 to 1			CC(C)OCCOc1ccc2c(c1)[C@]1(COC(N)=N1)c1cc(-c3cccnc3)ccc1O2 [compound 181]
< 0.1	< 0.1			NC1=N[C@]2(CO1)c1cc(C#CCCO)ccc1Oc1ccc(-c3cccnc3)cc12 [compound 183]
< 0.1	< 0.1			NC1=N[C@@]2(CO1)c1cc(-c3cccnc3)ccc1Oc1cnc(-c3cccnc3)cc12 [compound 184]

IC50 (BACE1 [1]; Table III, IC50's in uM ranges) [µM]	IC50 (BACE1 [2]; Table III, IC50's in uM ranges) [µM]	IC50 (BACE1 [1]; [3]) [µM]	IC50 (BACE1 [2]; [4]) [µM]	Compound
< 0.1	< 0.1			CC(C)(C)COc1ccc2c(c1)[C@@]1(COC(N)=N1)c1cc(-c3ncccn3)ccc1O2 [compound 186]
1 to 5	1 to 5			Cn1cncc1-c1ccc2c(c1)[C@]1(COC(N)=N1)c1cc(OCC(C)(C)C)ccc1O2 [compound 187]
0.1 to 1	1 to 5			COc1ncc(-c2ccc3c(c2)[C@]2(COC(N)=N2)c2cc(OCC(C)(C)C)ccc2O3)cn1 [compound 188]
0.1 to 1	> 5			Cc1noc(C)c1-c1ccc2c(c1)[C@]1(COC(N)=N1)c1cc(OCC(C)(C)C)ccc1O2 [compound 189]
0.1 to 1	> 5			CC(=O)c1ccccc1-c1ccc2c(c1)[C@]1(COC(N)=N1)c1cc(OCC(C)(C)C)ccc1O2 [compound 190]
< 0.1	1 to 5			CC(=O)c1cccc(-c2ccc3c(c2)[C@]2(COC(N)=N2)c2cc(OCC(C)(C)C)ccc2O3)c1 [compound 191]
1 to 5	> 5			CC(C)(C)COc1ccc2c(c1)[C@@]1(COC(N)=N1)c1cc(-c3cnc4ccccn34)ccc1O2 [compound 192]
< 0.1	< 0.1			CC(C)(O)CCc1ccc2c(c1)[C@]1(COC(N)=N1)c1cc(-c3cccnc3)ccc1O2 [compound 193]
< 0.1	< 0.1			NC1=N[C@]2(CO1)c1cc(CCCCO)ccc1Oc1ccc(-c3cccnc3)cc12 [compound 194]
< 0.1	0.1 to 1			NC1=N[C@]2(CO1)c1cc(OC3CCC3)ccc1Oc1ccc(-c3cccnc3)cc12 [compound 195]
< 0.1	0.1 to 1			NC1=NC2(CO1)c1cc(-c3ccc(F)nc3)ccc1Oc1ccc(-c3ccc(F)nc3)cc12 [compound 196]
< 0.1	< 0.1			CC1(COc2ccc3c(c2)[C@]2(COC(N)=N2)c2cc(C#CC4CC4)ccc2O3)COC1 [compound 197]
0.1 to 1	1 to 5			NC1=N[C@]2(CO1)c1cc(Br)ccc1Oc1ccc(Oc3ccccn3)cc12 [compound 198, (4S)-2′-bromo-7′-(2-pyridinyloxy)spiro[1,3-oxazole-4,9′-xanthen]-2-amine]
0.1 to 1	0.1 to 1			CC(=O)COc1ccc2c(c1)[C@]1(COC(N)=N1)c1cc(C#CC3CC3)ccc1O2 [compound 200]
< 0.1	< 0.1			COC(C)(C)C#Cc1ccc2c(c1)[C@]1(COC(N)=N1)c1cc(-c3cccnc3)ccc1O2 [compound 201]
0.1 to 1	1 to 5			NC1=N[C@@]2(CO1)c1cc(-c3cccnc3)ccc1Oc1ncc(-c3cccnc3)cc12 [compound 203]
< 0.1	< 0.1			N#Cc1ccc(-c2ccc3c(c2)[C@]2(COC(N)=N2)c2cc(-c4cccnc4)ccc2O3)cc1 [compound 204]
< 0.1	0.1 to 1			CC(C)(C)CCc1ccc2c(c1)[C@]1(COC(N)=N1)c1cc(Oc3ccccn3)ccc1O2 [compound 205]
> 5	0.1 to 1			NC1=N[C@@]2(CO1)c1cc(Br)ccc1Oc1ccc(Oc3ccccn3)cc12 [compound 206]
0.1 to 1	0.1 to 1			NC1=N[C@]2(CO1)c1cc(Oc3ccccn3)ccc1Oc1ccc(-c3cccnc3)cc12 [compound 207]

IC50 (BACE1 [1]; Table III, IC50's in uM ranges) [µM]	IC50 (BACE1 [2]; Table III, IC50's in uM ranges) [µM]	IC50 (BACE1 [1]; [3]) [µM]	IC50 (BACE1 [2]; [4]) [µM]	Compound
< 0.1	0.1 to 1			NC1=N[C@]2(CO1)c1cc(Oc3ccccn3)ccc1Oc1ccc(-c3cncnc3)cc12 [compound 209]
1 to 5	1 to 5			CC(C)(O)COc1ccc2c(c1)[C@]1(COC(N)=N1)c1cc(Br)ccc1O2 [compound 210]
0.1 to 1	1 to 5			NC1=N[C@@]2(CO1)c1cc(C#CC3CC3)ccc1Oc1ccc(Oc3ccccn3)cc12 [compound 211]
0.1 to 1	1 to 5			Cc1nn(C)c(C)c1-c1ccc2c(c1)[C@@]1(COC(N)=N1)c1cc(OCC(C)(C)C)ccc1O2 [compound 213]
0.1 to 1	1 to 5			CC(C)(C)COc1ccc2c(c1)[C@]1(COC(N)=N1)c1cc(-c3csc(-n4ccnc4)n3)ccc1O2 [compound 214]
1 to 5	> 5			CC(C)(C)COc1ccc2c(c1)[C@]1(COC(N)=N1)c1cc(-c3csc(N4CCCC4)n3)ccc1O2 [compound 215]
0.1 to 1	1 to 5			COc1ccncc1-c1ccc2c(c1)[C@@]1(COC(N)=N1)c1cc(OCC(C)(C)C)ccc1O2 [compound 217]
< 0.1	0.1 to 1			Cc1ccccc1-c1ccc2c(c1)[C@]1(COC(N)=N1)c1cc(-c3cncnc3)ccc1O2 [compound 220]
< 0.1	0.1 to 1			CC(C)(O)COc1ccc2c(c1)[C@]1(COC(N)=N1)c1cc(-c3ccccc3)ccc1O2 [compound 221]
< 0.1	< 0.1			CC(C)(O)COc1ccc2c(c1)[C@]1(COC(N)=N1)c1cc(-c3ccc(F)nc3)ccc1O2 [compound 222]
< 0.1	< 0.1			Cc1cncc(-c2ccc3c(c2)[C@@]2(COC(N)=N2)c2cc(OCC(C)(C)O)ccc2O3)c1 [compound 223]
< 0.1	< 0.1			CC(C)(O)COc1ccc2c(c1)[C@]1(COC(N)=N1)c1cc(-c3cncc(F)c3)ccc1O2 [compound 224]
< 0.1	< 0.1			NC1=N[C@@]2(CO1)c1cc(-c3cccnc3)ccc1Oc1ccc(-c3cncnc3)cc12 [compound 225]
< 0.1	< 0.1			Cc1ccc(-c2ccc3c(c2)[C@]2(COC(N)=N2)c2cc(-c4cncnc4)ccc2O3)cc1 [compound 226]
		< 0.1	< 0.1	NC1=NC2(CO1)c1cc(-c3cccnc3)ccc1Oc1c2cc(-c2cccnc2)nc1F (centres unmarked) [compound 301, 1-fluoro-3,7-di(pyridin-3-yl)-5′H-spiro[chromeno[2,3-c]pyridine-5,4′-oxazol]-2′-amine]
		< 0.1	0.1 to 1	COCC(=O)Nc1ccc2c(c1)[C@@]1(COC(N)=N1)c1cc(C#CC(C)(C)C)ccc1O2 [compound 324]
		< 0.1	< 0.1	Cc1cncc(-c2ccc3c(c2)[C@@]2(COC(N)=N2)c2cc(N4CCOCC4)ncc2O3)c1 [compound 325]
		< 0.1	< 0.1	Cc1cncc(-c2ccc3c(c2)[C@@]2(COC(N)=N2)c2cc(C4=CCOCC4)ncc2O3)c1 [compound 326]
